In patent publication US8362000B2, “Azetidinyl diamides as monoacylglycerol lipase inhibitors” (Janssen Pharmaceutica NV, priority 2009, dated 2013):
Positions count from the first letter of the chain named. Read-outs that look alike come from different tables or passages of the source.

Key:
[1] = biological target: T1, MGL (Rattus norvegicus, UniProt Q8R431); assay: 2-AG accumulation assay in rat brain homogenate; assay type: biochemical; conditions: rat brain homogenate, 2-AG accumulation as percent of vehicle; for 2-AG accumulation, % of vehicle control at 10 µM: compound 10 μM, read-out: Rat Brain 2AG % VehCntrl (%) @ 10 μM
T1 construct: one g rat brain was homogenized using a Polytron homogenizer; from tissue; host or cells: rat brain homogenate
T1 sequence (Q8R431 1-303): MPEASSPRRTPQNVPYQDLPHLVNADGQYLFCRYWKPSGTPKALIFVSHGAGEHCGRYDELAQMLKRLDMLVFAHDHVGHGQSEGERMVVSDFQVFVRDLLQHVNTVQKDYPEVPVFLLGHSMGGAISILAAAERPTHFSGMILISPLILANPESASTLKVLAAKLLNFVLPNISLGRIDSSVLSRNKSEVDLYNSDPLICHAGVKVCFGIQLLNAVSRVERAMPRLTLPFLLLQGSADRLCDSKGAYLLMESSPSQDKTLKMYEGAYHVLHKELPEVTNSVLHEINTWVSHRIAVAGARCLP

[2] = biological target: T2, purified wild type MGL (wt-MGLL 6H-11-313) (Homo sapiens, UniProt Q99685)
T2 sequence (Q99685 1-303): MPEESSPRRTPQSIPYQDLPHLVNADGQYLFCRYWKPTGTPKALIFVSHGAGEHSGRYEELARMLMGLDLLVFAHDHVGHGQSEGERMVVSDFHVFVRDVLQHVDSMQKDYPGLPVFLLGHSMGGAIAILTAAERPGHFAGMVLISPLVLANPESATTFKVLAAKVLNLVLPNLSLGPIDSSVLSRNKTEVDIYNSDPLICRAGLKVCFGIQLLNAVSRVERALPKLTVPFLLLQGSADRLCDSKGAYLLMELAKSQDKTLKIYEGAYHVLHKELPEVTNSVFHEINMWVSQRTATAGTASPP

[3] = biological target: T3, mutant MGL (Homo sapiens, UniProt Q99685, L169S/L176S); assay: MGL ThermoFluor assay - mutant; assay type: binding; conditions: read-out: MGL mutant ThermoFluor Kd
T3 sequence (Q99685 1-303 L169S/L176S): T2 sequence (Q99685 1-303) with L169S, L176S

[4] = ThermoFluor thermal stability binding assay

SMILES	2-AG accumulation, % of vehicle control at 10 µM [1] [%]	also measured
O=C(c1ccccc1)N1CC(N2CCN(C(=O)c3ccc(-c4ccccc4)cc3)C(c3ccccc3)C2)C1 (centres unmarked) [Cpd 44, 1-(Biphenyl-4-ylcarbonyl)-2-phenyl-4-[1-(phenylcarbonyl)azetidin-3-yl]piperazine]	238	–
Cc1c(C(=O)N2CC(N3CCN(C(=O)c4ccccc4)CC3)C2)sc2ccc(Cl)cc12 [Cpd 120, 1-{1-[(5-Chloro-3-methyl-1-benzothiophen-2-yl)carbonyl]azetidin-3-yl}-4-(phenylcarbonyl)piperazine]	483	–
Cc1nc(-c2cccs2)sc1C(=O)N1CC(N2CCN(C(=O)c3nccs3)CC2)C1 [Cpd 134, 1-{1-[(4-Methyl-2-thiophen-2-yl-1,3-thiazol-5-yl)carbonyl]azetidin-3-yl}-4-(1,3-thiazol-2-ylcarbonyl)piperazine]	582	–
Cc1ccc(-c2nc(C)c(C(=O)N3CC(N4CCN(C(=O)c5nccs5)CC4)C3)s2)cc1 [Cpd 135, 1-(1-{[4-Methyl-2-(4-methylphenyl)-1,3-thiazol-5-yl]carbonyl}azetidin-3-yl)-4-(1,3-thiazol-2-ylcarbonyl)piperazine]	592	–
Cc1nc(-c2ccc(C(F)(F)F)cc2)sc1C(=O)N1CC(N2CCN(C(=O)c3nccs3)CC2)C1 [Cpd 136, 1-[1-({4-Methyl-2-[4-(trifluoromethyl)phenyl]-1,3-thiazol-5-yl}carbonyl)azetidin-3-yl]-4-(1,3-thiazol-2-ylcarbonyl)piperazine]	612	–
O=C(c1cccc(-c2cccs2)c1)N1CC(N2CCN(C(=O)c3nccs3)CC2)C1 [Cpd 137, 1-(1,3-Thiazol-2-ylcarbonyl)-4-{1-[(3-thiophen-2-ylphenyl)carbonyl]azetidin-3-yl}piperazine]	441	–
O=C(c1ccc(-c2cccs2)cc1)N1CC(N2CCN(C(=O)c3nccs3)CC2)C1 [Cpd 138, 1-(1,3-Thiazol-2-ylcarbonyl)-4-{1-[(4-thiophen-2-ylphenyl)carbonyl]azetidin-3-yl}piperazine]	661	–
O=C(c1ccc(-c2cccc3ncccc23)cc1)N1CC(N2CCN(C(=O)c3nccs3)CC2)C1 [Cpd 184, 5-[4-({3-[4-(1,3-Thiazol-2-ylcarbonyl)piperazin-1-yl]azetidin-1-yl}carbonyl)phenyl]quinoline]	956	–
CN(C)S(=O)(=O)c1ccc(-c2ccc(C(=O)N3CC(N4CCN(C(=O)c5nccs5)CC4)C3)cc2)cc1 [Cpd 213, N,N-Dimethyl-4′-({3-[4-(1,3-thiazol-2-ylcarbonyl)piperazin-1-yl]azetidin-1-yl}carbonyl)biphenyl-4-sulfonamide]	104	–
COc1cc(F)c(F)cc1-c1ccc(C(=O)N2CC(N3CCN(C(=O)c4nccs4)CC3)C2)cc1 [Cpd 214, 1-{1-[(4′,5′-Difluoro-2′-methoxybiphenyl-4-yl)carbonyl]azetidin-3-yl}-4-(1,3-thiazol-2-ylcarbonyl)piperazine]	769	–
COc1ccc(-c2ccc(C(=O)N3CC(N4CCN(C(=O)c5nccs5)CC4)C3)cc2)cc1C=O [Cpd 216, 4-Methoxy-4′-({3-[4-(1,3-thiazol-2-ylcarbonyl)piperazin-1-yl]azetidin-1-yl}carbonyl)biphenyl-3-carbaldehyde]	625	–
O=C(c1ccccc1)N1CCN(C2CN(C(=O)c3ccc(N4CCOCC4)nc3)C2)CC1 [Cpd 1485, 4-[5-({3-[4-(Phenylcarbonyl)piperazin-1-yl]azetidin-1-yl}carbonyl)pyridin-2-yl]morpholine]	–	IC50 [2]: > 16.7 µM; Kd ([3]; ThermoFluor concentration-response): 10 µM
CC(=O)N1CC[C@@H](c2ccccc2C(=O)N2CC(N3CCN(C(=O)c4ccccc4)CC3)C2)C1 [Cpd 1486]	–	IC50 [2]: > 16.7 µM; Kd [3, 4]: > 31.2 µM
Cc1c(C(=O)N2CC(N3CCN(C(=O)c4ccccc4)CC3)C2)oc2ccc(F)cc12 [Cpd 1490]	–	IC50 [2]: > 16.7 µM; Kd [3, 4]: > 31.2 µM
O=C(c1ccccc1)N1CCN(C2CN(C(=O)c3cc4cc(Cl)ccc4o3)C2)CC1 [Cpd 1491]	–	IC50 [2]: > 16.7 µM; Kd [3, 4]: 12.5 µM

Now from value to compound, other results behind:

2-AG accumulation, % of vehicle control at 10 µM [1] [%]	SMILES	also measured
193	O=C(c1ccccc1)N1CCN(C2CN(C(=O)c3ccc(-c4ccc(C(F)(F)F)cc4)cc3)C2)CC1 [Cpd 75, 1-(Phenylcarbonyl)-4-(1-{[4′-(trifluoromethyl)biphenyl-4-yl]carbonyl}azetidin-3-yl)piperazine]	–
688	O=C(c1ccccc1)N1CCN(C2CN(C(=O)c3ccc4c(ccn4-c4ccccc4)c3)C2)CC1 [Cpd 128, 1-Phenyl-5-({3-[4-(phenylcarbonyl)piperazin-1-yl]azetidin-1-yl}carbonyl)-1H-indole]	–
676	O=C(c1ccc(-c2ccccc2C(F)(F)F)cc1)N1CC(N2CCN(C(=O)c3nccs3)CC2)C1 [Cpd 147, 1-(1,3-Thiazol-2-ylcarbonyl)-4-(1-{[2′-(trifluoromethyl)biphenyl-4-yl]carbonyl}azetidin-3-yl)piperazine]	–
768	Cc1ccc(F)cc1-c1ccc(C(=O)N2CC(N3CCN(C(=O)c4nccs4)CC3)C2)cc1 [Cpd 177, 1-{1-[(5′-Fluoro-2′-methylbiphenyl-4-yl)carbonyl]azetidin-3-yl}-4-(1,3-thiazol-2-ylcarbonyl)piperazine]	–
910	O=C(c1ccc(-c2ccc(F)cc2F)cc1)N1CC(N2CCN(C(=O)c3nccs3)CC2)C1 [Cpd 179, 1-{1-[(2′,4′-Difluorobiphenyl-4-yl)carbonyl]azetidin-3-yl}-4-(1,3-thiazol-2-ylcarbonyl)piperazine]	–
703	COc1cccc(-c2ccc(C(=O)N3CC(N4CCN(C(=O)c5nccs5)CC4)C3)cc2)c1 [Cpd 180, 1-{1-[(3′-Methoxybiphenyl-4-yl)carbonyl]azetidin-3-yl}-4-(1,3-thiazol-2-ylcarbonyl)piperazine]	–
521	O=C(c1ccccc1)N1CCN(C2CN(C(=O)c3ccc(-c4cccc(C(F)(F)F)c4)cc3)C2)CC1 [Cpd 186, 1-(Phenylcarbonyl)-4-(1-{[3′-(trifluoromethyl)biphenyl-4-yl]carbonyl}azetidin-3-yl)piperazine]	2-AG accumulation, % of vehicle control at 0.01 µM ([1]; compound 0.01 μM, read-out: Rat Brain 2AG % VehCntrl (%) @ 0.01 μM): 123%; 2-AG accumulation, % of vehicle control at 0.1 µM ([1]; compound 0.1 μM, read-out: Rat Brain 2AG % VehCntrl (%) @ 0.1 μM): 199%; 2-AG accumulation, % of vehicle control at 1 µM ([1]; compound 1 μM, read-out: Rat Brain 2AG % VehCntrl (%) @ 1 μM): 260%
506	CC(C)Oc1cccc(-c2ccc(C(=O)N3CC(N4CCN(C(=O)c5ccccc5)CC4)C3)cc2)c1 [Cpd 188, 1-(1-{[3′-(1-Methylethoxy)biphenyl-4-yl]carbonyl}azetidin-3-yl)-4-(phenylcarbonyl)piperazine]	–
365	O=C(c1ccccc1)N1CCN(C2CN(C(=O)c3ccc(-c4cccc(F)c4)cc3)C2)CC1 [Cpd 195, 1-{1-[(3′-Fluorobiphenyl-4-yl)carbonyl]azetidin-3-yl}-4-(phenylcarbonyl)piperazine]	–
402	N#CCc1cccc(-c2ccc(C(=O)N3CC(N4CCN(C(=O)c5nccs5)CC4)C3)cc2)c1 [Cpd 207, [4′-({3-[4-(1,3-Thiazol-2-ylcarbonyl)piperazin-1-yl]azetidin-1-yl}carbonyl)biphenyl-3-yl]acetonitrile]	–
122	O=Cc1cccc(-c2ccc(C(=O)N3CC(N4CCN(C(=O)c5nccs5)CC4)C3)cc2)c1 [Cpd 210, 4′-({3-[4-(1,3-Thiazol-2-ylcarbonyl)piperazin-1-yl]azetidin-1-yl}carbonyl)biphenyl-3-carbaldehyde]	–
725	O=C(c1ccc(-c2ccc(O)cc2)cc1)N1CC(N2CCN(C(=O)c3nccs3)CC2)C1 [Cpd 211, 4′-({3-[4-(1,3-Thiazol-2-ylcarbonyl)piperazin-1-yl]azetidin-1-yl}carbonyl)biphenyl-4-ol]	–
764	O=C(c1ccc(-c2cccc(O)c2)cc1)N1CC(N2CCN(C(=O)c3nccs3)CC2)C1 [Cpd 218, 4′-({3-[4-(1,3-Thiazol-2-ylcarbonyl)piperazin-1-yl]azetidin-1-yl}carbonyl)biphenyl-3-ol]	–
